The text below walks through data of patent US10906946B2, “Thrombin inhibitors” (priority 2015, dated 2021).

The target of this experiment is T1, human α-thrombin (Homo sapiens, UniProt P00734).
T1 construct: residues in the termini of the light chain; purchased Chemo-Sero-Therapeutic Research Institute (Kaketsuken, Japan), as a gift, not bought
Put plainly: Thrombin amidolytic activity assay with chromogenic substrate S2238. As to conditions: for Ki: various S2238 concentrations. Type of experiment: biochemical. As for the experimental part:
Thrombin amidolytic activity assays for all peptides were performed in 96-wells microtiter plates in 50 mM Tris buffer (pH 7.4) containing 100 mM NaCl and 1 mg/ml bovine serum albumin. […] The rates of formation of p-nitroaniline were followed by measuring the absorbance at 405 nm for 10 min with a Tecan InfinitePro M200 microplate reader from Tecan (Männedorf, Switzerland). Dose-response curves were fitted using the GraphPad Prizm software (San Diego, Calif., USA) to calculate IC50 values and Hill coefficients. To measure the inhibitory constants, different concentrations of S2238 were used and the residual velocities were determined using the Morrison's tight binding equation. Inhibition of thrombin fibrinogenolytic activity of peptides were tested by measuring absorbance at 650 nm using a Sunrise microplate reader from Tecan (Männedorf, Switzerland) as described previously [Koh C Y, et al., J Biol Chem 282: 29101-13 (2007)]. The selectivity of avathrin was examined against 13 serine proteases (FIG. 5). Effects of avathrin on the amidolytic activities of these serine proteases were determined using respective chromogenic substrates. […] Avathrin (150 μM) was incubated with thrombin (5 μM), in 50 mM Tris buffer (pH 7.4) containing 150 mM NaCl and 1 mg/ml BSA. After different incubation times, reactions were quenched with 1% TFA (pH 1.8) and loaded onto a Jupiter Proteo column (4 μm, 90 Å, 100×1.0 mm) attached to a Dionex nano-HPLC system from Thermo Fisher Scientific (Waltham, Mass., USA) and eluted using an acetonitrile gradient with 0.05% TFA and 99.95% MilliQ water as eluent A and 0.05% TFA, 19.95% MilliQ water and 80% ACN as eluent B. Masses of all peaks were measured to identify cleavage products, which were subsequently quantified by integrating the peaks and calculating the area under the curves. To measure the effect of different pre-incubation times on the thrombin inhibitory activity, amidolytic assays were performed for various incubation times (up to 36 h).

Setting [1] is: inhibitory constant Ki for thrombin, thrombin 0.81 nM.
Setting [2] is: IC50 (nM), Table 4, members of variegin family.

Like-named read-outs stand apart in the source and are kept apart here. Ends that are not written are not given here. Peptide text beside a SMILES is read from it.

A word on the IC50: it is the concentration needed to halve the response being measured. The Ki is the dissociation constant of the complex between target and ligand, obtained from inhibition or displacement. With `CC[C@H](C)[C@H](NC(=O)[C@H](C)NC(=O)[C@H](CCCNC(=N)N)NC(=O)[C@@H](NC(=O)[C@H](C)NC(=O)[C@H](CCC(=O)O)NC(=O)[C@H](CC(=O)O)NC(=O)[C@@H](N)CO)C(C)C)C(=O)N1CCC[C@H]1C(=O)N[C@@H](CCCCN)C(=O)N[C@@H](CCSC)C(=O)N[C@@H](Cc1ccc(O)cc1)C(=O)N[C@@H](CO)C(=O)N[C@H](C(=O)N[C@@H](C)C(=O)N1CCC[C@H]1C(=O)N1CCC[C@H]1C(=O)NCC(=O)N[C@@H](CC(=O)O)C(=O)N[C@@H](Cc1ccccc1)C(=O)N[C@@H](CCC(=O)O)C(=O)N[C@@H](CCC(=O)O)C(=O)N[C@H](C(=O)N1CCC[C@H]1C(=O)N[C@@H](CCC(=O)O)C(=O)N[C@@H](CCC(=O)O)C(=O)N[C@@H](Cc1ccc(O)cc1)C(=O)N[C@@H](CC(C)C)C(=O)N[C@@H](CC(=O)O)C(=O)N[C@@H](CC(=O)O)C(=O)N[C@@H](CCC(=O)O)C(=O)N[C@@H](CO)C(=O)O)[C@@H](C)CC)[C@@H](C)O` [UV005], the “fold drop in affinity for thrombin compared to ultravariegin” value is listed as “around 3.6 fold”. Also, the midpoint of inhibition (IC50 of inhibition of thrombin amidolytic activity, FIG. 17 legend), the IC50, lay at 0.91 ± 0.47 nM. Further, under setting [1], affinity was put at a Ki of 0.016 ± 0.00305 nM.

`CC[C@H](C)[C@H](NC(=O)[C@H](C)NC(=O)[C@H](CC(=O)O)NC(=O)[C@H](CC(=O)O)NC(=O)[C@@H]1CCCN1C(=O)[C@@H](NC(=O)[C@H](CCC(=O)O)NC(=O)[C@H](CCC(=O)O)NC(=O)[C@H](Cc1ccccc1)NC(=O)[C@H](CC(=O)O)NC(=O)CNC(=O)[C@@H]1CCCN1C(=O)[C@@H]1CCCN1C(=O)[C@H](C)NC(=O)[C@@H](NC(=O)[C@H](CO)NC(=O)[C@H](Cc1ccc(O)cc1)NC(=O)[C@@H](N)CCSC)[C@@H](C)O)[C@@H](C)CC)C(=O)N[C@@H](CCC(=O)O)C(=O)N[C@@H](CCC(=O)O)C(=O)O` [UV011] (H-MYSTAPPGDFEEIPDDAIEE-OH): the “fold better Ki than avathrin C-terminal cleavage product IS20” value is “around 4 fold” and the “fold better Ki than variegin C-terminal cleavage product MH22” value is reported as “around 10 fold”. The IC50 (IC50 of inhibition of thrombin amidolytic activity, thrombin 0.81 nM, S2238 100 μM, without pre-incubation (0 min) where stated) is 1.66 ± 0.77 nM. The molecule further yielded a Ki under setting [1] of 1.39 ± 0.23 nM.

Consider `CC[C@H](C)[C@H](NC(=O)[C@H](CCC(=O)O)NC(=O)[C@H](CC(=O)O)NC(=O)[C@H](CC(=O)O)NC(=O)[C@@H]1CCCN1C(=O)[C@@H](NC(=O)[C@H](CCC(=O)O)NC(=O)[C@H](CCC(=O)O)NC(=O)[C@H](Cc1ccccc1)NC(=O)[C@H](CC(=O)O)NC(=O)CNC(=O)[C@@H]1CCCN1C(=O)[C@@H]1CCCN1C(=O)[C@H](C)NC(=O)[C@@H](NC(=O)[C@H](CO)NC(=O)[C@H](Cc1ccc(O)cc1)NC(=O)[C@H](CCSC)NC(=O)[C@H](CCCCN)NC(=O)[C@@H]1CCCN1C(=O)[C@@H](NC(=O)[C@H](C)NC(=O)[C@H](CCCNC(=N)N)NC(=O)[C@@H](NC(=O)[C@H](C)NC(=O)[C@H](CCC(=O)O)NC(=O)[C@H](CC(=O)O)NC(=O)[C@@H](N)CO)C(C)C)[C@@H](C)CC)[C@@H](C)O)[C@@H](C)CC)C(=O)N[C@@H](CCC(=O)O)C(=O)N[C@@H](CCC(=O)O)C(=O)O` [UV012] (H-SDEAVRAIPKMYSTAPPGDFEEIPDDEIEE-OH; N-terminus and C-terminus assumed), for which the “fold drop in affinity for thrombin compared to ultravariegin” value is 5 fold.

On to “ELESGDEDSEGGDSQSSPTESAAPRLHQREGGGGDFENVEYDQDQK [Amblyomma maculatum]”, for which inhibition under setting [2] was half-maximal at 130 ± 1.74 nM (IC50).

“SDVAPADYESDEGDNDGGHDGSEVAKPKMPRGNGGGGDFEEIPEVE [Rhipicephalus sanguineus]”: the IC50 (Table 4, members of variegin family, read-out: IC50) came to 42.4 ± 0.62 nM. Further, the Ki (thrombin 0.81 nM, read-out: inhibitory constant Ki for thrombin) turned out to be 8.79 ± 0.65 nM.

For “TGSDDDDEYDMYESDGDSNEGNDNDEFETAVPRLPNPNSGRDSEHIPMPVN [Hyalomma marginatum rufipes]”, the midpoint of inhibition under setting [2], the IC50, lay at 32.5 ± 3.94 nM. This molecule also yielded a Ki under setting [1] of 6.13 ± 0.39 nM.
